By EC50 is commonly meant the concentration giving half of the maximal effect.

The record followed here is patent US20250289785A1, “INDOLE DERIVATIVE, METHOD FOR PREPARING SAME, AND USE THEREOF” (MITOIMMUNE THERAPEUTICS INC., priority 2021, published 2025).

For one experiment, the system named is ARPE-19 cells. Description: Cell death protective effect in retinal epithelial cells against Erastin and RSL3 (LDH). Format: cell-based, human. Conditions: 24 h. On the procedure:
In order to identify the protective effect on retinal epithelial cells, ARPE-19 cells were divided into 96-well plates by 1×10^4 and cultured for 18 to 24 hours. The compounds of Examples were diluted to final concentrations of 0.03 and 0.3 μM, treated in each well, and incubated for 20 minutes. Erastin, and RSL3 were treated to have final concentrations of 10 μM, and 0.3 μM, respectively, and cultured for 24 hours. In order to identify the protective effect of each compound, the degree of LDH extracellular secretion was measured using cytotoxicity LDH assay kit [Dojindo; CK12]. Briefly, at the time when the treatment of the cells with Erastin, and RSL3 for 24 hours is completed, the supernatants containing the cells are taken by 70 μL and transferred to a new 96-well plate. The assay buffer included in the kit is added in an amount of 70 μL/well (the same amount as the sample) thereto, and then the plate is wrapped with a foil and the reaction is performed at room temperature for 15 minutes.

The next experiment relates to H9C2 cells. Nature of the experiment: Cell protection effect against t-BHP in heart cells (LDH release). Format: cell-based. Conditions: H9C2, t-BHP 40 μM, 2 hours. The method in brief:
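H9C2 cardiomyocytes pre-treated 15–20 min with compound (final 0.03–30 μM, 3-fold series), then challenged with 40 μM t-BHP for 2 h. LDH released into supernatant measured colorimetrically (30 min, room temperature, A490); EC50 calculated from protection.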
For orientation: LDH in the medium is a marker of cell lysis.

In the next experiment the test system is NRK-49F cells. Nature of the experiment: Cell death protective effect in renal fibroblasts against Erastin, glutamate and RSL3 (LDH). Format: cell-based, rat. Conditions: 24 h. On the procedure:
(§1) In order to identify the protective effect on renal fibroblasts, NRK-49F cells were divided into 96-well plates by 1×10^4 and cultured for 18 to 24 hours. The compounds of Examples were diluted to final concentrations of 0.1 and 1. μM, treated in each well, and incubated for 15 to 20 minutes. Erastin, glutamate, and RSL3 were treated to have final concentrations of 3 μM, 75 mM, and 3 μM, respectively, and cultured for 24 hours. In order to identify the protective effect of each compound, the degree of LDH extracellular secretion was measured using cytotoxicity LDH assay kit [Dojindo; CK12]. Briefly, at the time when the treatment of the cells with Erastin, glutamate, and RSL3 for 24 hours is completed, the supernatants containing the cells are taken by 70 μL and transferred to a new 96-well plate. The assay buffer included in the kit is added in an amount of 70 μL/well (the same amount as the sample) thereto, and then the plate is wrapped with a foil and the reaction is performed at room temperature for 15 minutes.

The subject of another experiment is NIH/3T3 cells. Nature of the experiment: Cell death protective effect in fibroblasts against Erastin, glutamate and RSL3 (LDH). The experiment is classed as cell-based, mouse. As to conditions: 24 h. On the procedure:
as §1, with “on” for “on renal”, “NIH/3T3” for “NRK-49F”, “8×10^3” for “1×10^4”, “1” for “1.”, “30” for “75”

For the next experiment, the system named is PC-12 cells. Description: Cell death protective effect in adrenal cells against Erastin, glutamate and RSL3 (LDH). Format: cell-based, rat. Conditions: 24 h. On the procedure:
In order to identify the protective effect on adrenal cells, PC-12 cells were divided into 96-well plates by 1×10^4 and cultured for 18 to 24 hours. […] Erastin, glutamate, and RSL3 were treated to have final concentrations of 1 μM, 10 mM, and 0.3 μM, respectively, and cultured for 24 hours. In order to identify the protective effect of each compound, the degree of LDH extracellular secretion was measured using cytotoxicity LDH assay kit [Dojindo; CK12]. Briefly, at the time when the treatment of the cells with Erastin, glutamate, and RSL3 for 24 hours is completed, the supernatants containing the cells are taken by 70 μL and transferred to a new 96-well plate. The assay buffer included in the kit is added in an amount of 70 μL/well (the same amount as the sample) thereto, and then the plate is wrapped with a foil and the reaction is performed at room temperature for 15 minutes.

Setting [1] is: ARPE-19, Erastin, 10 μM, compound 0.03 μM.
Setting [2] is: ARPE-19, Erastin, 10 μM, compound 0.3 μM.
The mark [3] stands for this setting: ARPE-19, RSL3, 0.3 μM, compound 0.03 μM (first RSL3 column).
Where [4] appears, read: ARPE-19, RSL3, 0.3 μM, compound 0.03 μM (second RSL3 column).
Setting [5] is: Glutamate, 75 mM, compound 0.1 μM.
Where [6] appears, read: Glutamate, 75 mM, compound 1.0 μM.
The mark [7] stands for this setting: NIH/3T3, Erastin, 3 μM, compound 0.1 μM.
Where [8] appears, read: NIH/3T3, Erastin, 3 μM, compound 1.0 μM.
[9] abbreviates: NIH/3T3, Glutamate, 30 mM, compound 0.1 μM.
The mark [10] stands for this setting: NIH/3T3, Glutamate, 30 mM, compound 1.0 μM.
[11] abbreviates: NIH/3T3, RSL3, 3 μM, compound 0.1 μM.
The mark [12] stands for this setting: NIH/3T3, RSL3, 3 μM, compound 1.0 μM.
[13] abbreviates: PC-12, Erastin, 1 μM, compound 0.1 μM.
[14] abbreviates: PC-12, Erastin, 1 μM, compound 1.0 μM.
Where [15] appears, read: PC-12, Glutamate, 10 mM, compound 0.1 μM.
Setting [16] is: PC-12, Glutamate, 10 mM, compound 1.0 μM.
Setting [17] is: PC-12, RSL3, 0.3 μM, compound 0.1 μM.
Setting [18] is: PC-12, RSL3, 0.3 μM, compound 1.0 μM.

Structures are written as SMILES.

`CCOCc1cc(NC2CCCC2)c2[nH]c(-c3ccccc3)cc2c1` [Example 19, N-cyclopentyl-5-(ethoxymethyl)-2-phenyl-1H-indol-7-amine]: the “inhibition (%)” value in the experiment on ARPE-19 cells (setting [1]) worked out at 99%; in the experiment on ARPE-19 cells (setting [2]), 100%; in the experiment on ARPE-19 cells (setting [3]), 100%; in the experiment on ARPE-19 cells (setting [4]), 100%; in the experiment on NRK-49F cells (Erastin, 3 μM, compound 0.1 μM) it was 96%; with NRK-49F cells (Erastin, 3 μM, compound 1.0 μM), 95%. Further, the “inhibition (%)” value in the experiment on NRK-49F cells (setting [5]) worked out at 100%; in the experiment with NRK-49F cells (setting [6]) it was 100%; in the experiment on NRK-49F cells (RSL3, 3 μM, compound 0.1 μM) it was 97%; in the experiment on NRK-49F cells (RSL3, 3 μM, compound 1.0 μM), 96%; with NIH/3T3 cells (setting [7]) it was 100%; with NIH/3T3 cells (setting [8]), 100%. In addition, the “inhibition (%)” value with NIH/3T3 cells (setting [9]) turned out to be 95%; in the experiment on NIH/3T3 cells (setting [10]), 97%; with NIH/3T3 cells (setting [11]) it was 100%; with NIH/3T3 cells (setting [12]), 100%; in the experiment with PC-12 cells (setting [13]) it was 100%; in the experiment on PC-12 cells (setting [14]), 100%. The “inhibition (%)” value in the experiment on PC-12 cells (setting [15]), in the experiment on PC-12 cells (setting [16]), with PC-12 cells (setting [17]) and in the experiment with PC-12 cells (setting [18]) was 100% in each case. Besides, the half-maximal effective concentration (EC50) with H9C2 cells is no more than 300 nM.

As to `CCOCc1cc(NC2CCOCC2)c2c(c1)c(COC)c(-c1ccccc1)n2C` [Example 29, 5-(ethoxymethyl)-3-(methoxymethyl)-1-methyl-2-phenyl-N-(tetrahydro-2H-pyran-4-yl)-1H-indol-7-amine], the “inhibition (%)” value in the experiment on ARPE-19 cells (setting [1]) worked out at 22%; with ARPE-19 cells (setting [2]), 100%; in the experiment with ARPE-19 cells (setting [3]) it was 18%; with ARPE-19 cells (setting [4]) it was 100%; in the experiment on NRK-49F cells (Erastin, 3 μM, compound 0.1 μM) it was 3%; in the experiment on NRK-49F cells (Erastin, 3 μM, compound 1.0 μM), 93%. The “inhibition (%)” value was 17% in the experiment on NRK-49F cells (setting [5]); 100% with NRK-49F cells (setting [6]); 0% in the experiment on NRK-49F cells (RSL3, 3 μM, compound 0.1 μM); 96% with NRK-49F cells (RSL3, 3 μM, compound 1.0 μM); 0% with NIH/3T3 cells (setting [7]); 99% in the experiment with NIH/3T3 cells (setting [8]). Further, the “inhibition (%)” value in the experiment with NIH/3T3 cells (setting [9]) was determined as 98%; in the experiment with NIH/3T3 cells (setting [10]) it was 97%; with NIH/3T3 cells (setting [11]), 100%; with NIH/3T3 cells (setting [12]) it was 100%; in the experiment with PC-12 cells (setting [13]), 0%; in the experiment with PC-12 cells (setting [14]), 100%. The “inhibition (%)” value in the experiment on PC-12 cells (setting [15]) was 22%; in the experiment on PC-12 cells (setting [16]), 71%; in the experiment with PC-12 cells (setting [17]), 26%; in the experiment on PC-12 cells (setting [18]) it was 100%. In the experiment with H9C2 cells, this molecule displayed an EC50 of 300 to 1000 nM.

For the molecule `COCCc1cc(NC2CCOCC2)c2[nH]c(-c3ccccc3)cc2c1` [Example 41, 5-(2-methoxyethyl)-2-phenyl-N-(tetrahydro-2H-pyran-4-yl)-1H-indol-7-amine], the “inhibition (%)” value in the experiment on ARPE-19 cells (setting [1]) was found to be 100%; in the experiment with ARPE-19 cells (setting [2]), 100%; in the experiment with ARPE-19 cells (setting [3]) it was 100%; in the experiment on ARPE-19 cells (setting [4]) it was 100%; in the experiment with NRK-49F cells (Erastin, 3 μM, compound 0.1 μM) it was 96%; in the experiment with NRK-49F cells (Erastin, 3 μM, compound 1.0 μM) it was 94%. The “inhibition (%)” value is reported as 100% with NRK-49F cells (setting [5]); 100% with NRK-49F cells (setting [6]); 97% in the experiment with NRK-49F cells (RSL3, 3 μM, compound 0.1 μM); 97% with NRK-49F cells (RSL3, 3 μM, compound 1.0 μM); 0% in the experiment with NIH/3T3 cells (setting [7]); 0% in the experiment on NIH/3T3 cells (setting [8]). Moreover, the “inhibition (%)” value with NIH/3T3 cells (setting [9]) is recorded as 99%; in the experiment on NIH/3T3 cells (setting [10]), 98%; in the experiment with NIH/3T3 cells (setting [11]), 100%; in the experiment with NIH/3T3 cells (setting [12]), 100%; in the experiment with PC-12 cells (setting [13]), 100%; with PC-12 cells (setting [14]), 100%. Besides, the “inhibition (%)” value was 76% with PC-12 cells (setting [15]), 100% in the experiment with PC-12 cells (setting [16]), 100% in the experiment with PC-12 cells (setting [17]) and 100% in the experiment on PC-12 cells (setting [18]). In the experiment on H9C2 cells, this molecule yielded an EC50 of no more than 300 nM.

In the case of `CCOCc1cc(NC2CCOCC2)c2[nH]c(-c3ccccc3)c(-c3ncc[nH]3)c2c1` [Example 46, 5-(ethoxymethyl)-3-(1H-imidazol-2-yl)-2-phenyl-N-(tetrahydro-2H-pyran-4-yl)-1H-indole-7-amine], the “inhibition (%)” value with ARPE-19 cells (setting [1]) was 3%; with ARPE-19 cells (setting [2]), 64%; in the experiment on ARPE-19 cells (setting [3]), 5%; in the experiment with ARPE-19 cells (setting [4]), 43%; in the experiment on NRK-49F cells (Erastin, 3 μM, compound 0.1 μM), 5%; in the experiment with NRK-49F cells (Erastin, 3 μM, compound 1.0 μM) it was 64%. The “inhibition (%)” value with NRK-49F cells (setting [5]) amounted to 13%; in the experiment on NRK-49F cells (setting [6]), 16%; in the experiment on NRK-49F cells (RSL3, 3 μM, compound 0.1 μM), 0%; in the experiment with NRK-49F cells (RSL3, 3 μM, compound 1.0 μM), 5%; in the experiment on NIH/3T3 cells (setting [7]), 102%; in the experiment on NIH/3T3 cells (setting [8]), 99%. Besides, the “inhibition (%)” value in the experiment on NIH/3T3 cells (setting [9]) came out at 0%; in the experiment with NIH/3T3 cells (setting [10]) it was 96%; with NIH/3T3 cells (setting [11]), 0%; with NIH/3T3 cells (setting [12]), 100%; in the experiment on PC-12 cells (setting [13]) it was 0%; in the experiment with PC-12 cells (setting [14]), 38%. Also, the “inhibition (%)” value was found to be 4% in the experiment with PC-12 cells (setting [15]), 6% with PC-12 cells (setting [16]), 0% in the experiment on PC-12 cells (setting [17]) and 100% in the experiment with PC-12 cells (setting [18]). In the experiment with H9C2 cells, this molecule came in with an EC50 greater than 1000 nM.
